# In publication PMC3362725, “An open-label, phase 1 study evaluating safety, tolerability, and pharmacokinetics of linifanib (ABT-869) in Japanese patients with solid tumors” (Cancer Chemotherapy and Pharmacology, 2012):
# “And” between values parts separate entries of the source, which are not always exact repeats. Identical values can stand only once. Like-named read-outs stand apart in the source and are kept apart here.
# Columns and labels:
# [1] = Pharmacokinetics of oral linifanib in plasma and urine, non-compartmental analysis, phase 1 study; type: in vivo, human (Japanese patients with solid tumors); conditions: for DN AUC24 / DN C max: dose-normalized; for AUC: read-out: AUC24
# Experimental: Pharmacokinetic sampling occurred pre-dose and 0.5, 1, 2, 3, 4, 6, 8, and 24 h after single-dose linifanib on Cycle (C) 1D1, and pre-dose and 0.5, 1, 2, 3, 4, 6, and 8 h after multiple once-daily doses on C1D15. Urine was collected for 24-h after the C1D15 dose. Linifanib and its metabolite concentrations in plasma and urine were determined using a validated method based on triple quadruple tandem mass spectrometry with a lower limit of quantification of 1.0 ng/mL.
# Pharmacokinetic parameter (defined in Table 3) concentrations were determined by non-compartmental analysis using WinNonlin Professional v.5.2 (Pharsight Corp., Cary, NC). […] Additional samples were collected at C3D1 (pre-dose) and every second cycle until study completion or until C15D1. Concentrations for samples at C3D1 and subsequent samples, and data from C1D1 to C1D15 were included in the nonlinear mixed effects models to explore covariates such as age, body weight, and gender (data not shown). Following single-dose linifanib at 0.25 mg/kg, a post hoc analysis compared the pharmacokinetics between the Japanese patients in the current study and non-Japanese patients in two phase 1 studies: Caucasian patients receiving […] linifanib (Abbott, unpublished) and the non-Japanese segment of Asian patients receiving 0.10–0.30 mg/kg linifanib.
# solid tumors = test: Tumor response per RECIST (CT or MRI), phase 1 study; type: in vivo, human (Japanese patients with solid tumors)
# Experimental: Baseline evaluations included physical examination, body weight, vital signs, 12-lead electrocardiogram, ECOG PS assessment, pregnancy test, laboratory tests, and multiple-gated acquisition scan/echocardiogram. Tumor response and/or disease progression was assessed by computerized tomography (CT) scan or magnetic resonance imaging (MRI) per RECIST [20] at screening and on Day (D) 1 of every second cycle prior to the subsequent treatment period, until tumor progression or until final visit. Complete response and partial response (PR) were defined according to RECIST [20]; objective response rate (ORR) was defined as the proportion of patients with best response of PR or CR among the study population. Safety assessments included laboratory test results and adverse events (AEs), which were graded according to CTCAE v3 [18] and coded by medical dictionary of regulatory activities (MedDRA) 1.0.
# PlGF = test: Plasma PlGF biomarker (Abbott Architect kits); type: in vivo, human (Japanese patients with solid tumors)
# Experimental: Plasma for biomarker analysis was collected before linifanib administration on C1D1, C1D15, C2D1, and at the final visit. Concentration of PlGF was determined using Abbott Architect® kits. The relationship of PlGF levels to outcomes was assessed post hoc. To assess the relationship between PlGF induction and toxicity, patients were grouped into those requiring and not requiring dose interruption during the first 30 days of therapy. Median PlGF increase from baseline to C1D15 was compared as a function of toxicity group. To assess the relationship between PlGF induction and efficacy, patients were segregated into those with progressive disease (PD; N = 6) or stable disease (SD; N = 10) at C6, and PlGF increase from baseline to C1D15 was compared.
# [2] = design: method as in earlier work; conditions: Caucasian patients, 0.25 mg/kg single dose, mean ± SD, N 13; cited from earlier work
# [3] = design: method as in PMID 19720910; conditions: cited from earlier work
# HT1080 fibrosarcoma = system: HT1080 fibrosarcoma; design: method as in PMID 16648571; conditions: predicted based on preclinical murine HT1080 fibrosarcoma model; cited from earlier work
# [4] = 0.05 mg/kg once daily, multiple dose (C1D15), mean ± SD, N 3
# [5] = 0.05 mg/kg oral, single dose (C1D1), mean ± SD, N 3
# [6] = 0.10 mg/kg once daily, multiple dose (C1D15), mean ± SD, N 5
# [7] = 0.10 mg/kg oral, single dose (C1D1), mean ± SD, N 6
# [8] = 0.20 mg/kg once daily, multiple dose (C1D15), mean ± SD, N 3
# [9] = 0.20 mg/kg oral, single dose (C1D1), mean ± SD, N 3
# [10] = 0.25 mg/kg once daily, multiple dose (C1D15), mean ± SD, N 5
# [11] = 0.25 mg/kg oral, single dose (C1D1), mean ± SD, N 6
# [12] = human, plasma, 0.1 mg/kg, 0.10 mg/kg oral, single dose (C1D1), mean ± SD, N 6
# [13] = human, plasma, 0.2 mg/kg, 0.20 mg/kg oral, single dose (C1D1), mean ± SD, N 3
# [14] = human, plasma, 0.05 mg/kg oral, single dose (C1D1), mean ± SD, N 3
# [15] = human, plasma, 0.25 mg/kg oral, single dose (C1D1), mean ± SD, N 6
structure (smiles),measurement,setting,value
"Cc1ccc(F)c(NC(=O)Nc2ccc(-c3cccc4[nH]nc(N)c34)cc2)c1 [linifanib, N-(4-(3-amino-1H-indazol-4-yl)phenyl)-N’-(2-fluoro-5-methylphenyl)urea]",R (accumulation ratio calculated as DN AUC24 between D15 and D1),"[1]; 0.05 mg/kg once daily, mean ± SD, N 3",1.58 ± 0.34
same,R (accumulation ratio calculated as DN AUC24 between D15 and D1),"[1]; 0.10 mg/kg once daily, mean ± SD, N 5",1.46 ± 0.27
same,R (accumulation ratio calculated as DN AUC24 between D15 and D1),"[1]; 0.20 mg/kg once daily, mean ± SD, N 3",1.56 ± 0.08
same,R (accumulation ratio calculated as DN AUC24 between D15 and D1),"[1]; 0.25 mg/kg once daily, mean ± SD, N 5",1.46 ± 0.23
same,dose proportionality of pharmacokinetics,"[1]; 0.10–0.25 mg/kg, single and once-daily dosing",dose-proportional
same,DN AUC24,[1]; [4],0.77 ± 0.18 µg·h/mL/mg
same,DN C max,[1]; [4],0.051 ± 0.007 µg/mL/mg
same,DN AUC24,[1]; [5],0.49 ± 0.08 µg·h/mL/mg
same,DN C max,[1]; [5],0.036 ± 0.007 µg/mL/mg
same,DN AUC24,[1]; [6],0.50 ± 0.11 µg·h/mL/mg
same,DN C max,[1]; [6],0.034 ± 0.008 µg/mL/mg
same,DN AUC24,[1]; [7],0.33 ± 0.04 µg·h/mL/mg
same,DN C max,[1]; [7],0.026 ± 0.004 µg/mL/mg
same,DN AUC24,[1]; [8],0.52 ± 0.02 µg·h/mL/mg
same,DN C max,[1]; [8],0.036 ± 0.003 µg/mL/mg
same,DN AUC24,[1]; [9],0.33 ± 0.01 µg·h/mL/mg
same,DN C max,[1]; [9],0.028 ± 0.007 µg/mL/mg
same,DN AUC24,[1]; [10],0.37 ± 0.06 µg·h/mL/mg
same,DN C max,[1]; [10],0.028 ± 0.002 µg/mL/mg
same,DN AUC24,[1]; [11],0.25 ± 0.02 µg·h/mL/mg
same,DN C max,[1]; [11],0.019 ± 0.004 µg/mL/mg
same,Cmax,[1]; [12],152 ± 36 ng/mL
same,AUC,[1]; [12],1910 ± 380 ng·h/mL
same,Tmax,"[1]; human, plasma, 0.1 mg/kg, 0.10 mg/kg oral, single dose (C1D1), mean ± SD, N 6, read-out: T max",1.67 ± 0.52 h
same,Cmax,[1]; [13],305 ± 70 ng/mL
same,AUC,[1]; [13],3600 ± 430 ng·h/mL
same,Tmax,"[1]; human, plasma, 0.2 mg/kg, 0.20 mg/kg oral, single dose (C1D1), mean ± SD, N 3, read-out: T max",1.67 ± 0.57 h
same,Cmax,"[1]; human, plasma, oral, 0.1 mg/kg, 0.10 mg/kg once daily, multiple dose (C1D15), mean ± SD, N 5",186 ± 64 ng/mL
same,Tmax,"[1]; human, plasma, oral, 0.1 mg/kg, 0.10 mg/kg once daily, multiple dose (C1D15), mean ± SD, N 5, read-out: T max",2.2 ± 0.45 h
same,AUC,"[1]; human, plasma, oral, 0.1 mg/kg, 0.10 mg/kg once daily, multiple dose (C1D15), pre-dose concentration assumed equal to 24 h, mean ± SD, N 5",2820 ± 1030 ng·h/mL
same,Cmax,"[1]; human, plasma, oral, 0.2 mg/kg, 0.20 mg/kg once daily, multiple dose (C1D15), mean ± SD, N 3",390 ± 41 ng/mL
same,Tmax,"[1]; human, plasma, oral, 0.2 mg/kg, 0.20 mg/kg once daily, multiple dose (C1D15), mean ± SD, N 3, read-out: T max",2.33 ± 0.58 h
same,AUC,"[1]; human, plasma, oral, 0.2 mg/kg, 0.20 mg/kg once daily, multiple dose (C1D15), pre-dose concentration assumed equal to 24 h, mean ± SD, N 3",5630 ± 920 ng·h/mL
same,half-life,"[1]; human, plasma, oral, after repeated daily dosing, associated with accumulation ratio 1.5, read-out: effective half-life (converted)",15 h
same,Cmax,"[1]; human, plasma, oral, 0.05 mg/kg once daily, multiple dose (C1D15), mean ± SD, N 3",128 ± 17 ng/mL
same,Tmax,"[1]; human, plasma, oral, 0.05 mg/kg once daily, multiple dose (C1D15), mean ± SD, N 3, read-out: T max",2.34 ± 0.57 h
same,AUC,"[1]; human, plasma, oral, 0.05 mg/kg once daily, multiple dose (C1D15), pre-dose concentration assumed equal to 24 h, mean ± SD, N 3",1920 ± 450 ng·h/mL
same,Cmax,"[1]; human, plasma, oral, 0.25 mg/kg once daily, multiple dose (C1D15), mean ± SD, N 5",418 ± 55 ng/mL
same,Tmax,"[1]; human, plasma, oral, 0.25 mg/kg once daily, multiple dose (C1D15), mean ± SD, N 5, read-out: T max",2.2 ± 0.45 h
same,AUC,"[1]; human, plasma, oral, 0.25 mg/kg once daily, multiple dose (C1D15), pre-dose concentration assumed equal to 24 h, mean ± SD, N 5",5460 ± 1160 ng·h/mL
same,Cmax,[1]; [14],90 ± 18 ng/mL
same,AUC,[1]; [14],1230 ± 210 ng·h/mL
same,Tmax,"[1]; human, plasma, 0.05 mg/kg oral, single dose (C1D1), mean ± SD, N 3, read-out: T max",1.65 ± 0.56 h
same,Cmax,[1]; [15],305 ± 68 ng/mL
same,AUC,[1]; [15],3780 ± 480 ng·h/mL
same,Tmax,"[1]; human, plasma, 0.25 mg/kg oral, single dose (C1D1), mean ± SD, N 6, read-out: T max",2.33 ± 1.03 h
same,Tmax,"[1]; human, plasma, across all dose levels (0.05–0.25 mg/kg oral), read-out: average T max",~2 h
same,ORR,"solid tumors; 2 of 18 patients, RECIST",11.1%
same,patients with tumor reduction >5% by RECIST,solid tumors; 12/18 patients,67%
same,patients with SD for ≥12 weeks,solid tumors; 18 patients,11
same,patients with confirmed PR,"solid tumors; 18 patients, 0.20 mg/kg (breast cancer) and 0.25 mg/kg (lung cancer)",Two
same,patients with reduction in summed tumor dimensions of ≥5%,"solid tumors; of the 18 patients, cohorts 0.10, 0.20, and 0.25 mg/kg",12 and 12/18
same,median duration of response,solid tumors; range 2.8–3.5,3.2 months
same,median progression-free survival (PFS),solid tumors; range 2.8–9.8,5.7 months
same,patients who continued linifanib with clinical benefit for ≥48 weeks,"solid tumors; sarcoma, breast, lung, thymic cancer, best response SD",Four
same,induction of PlGF on C1D15 and C2D1,PlGF; 0.05–0.25 mg/kg once daily,dose-dependent
same,median (±SD) increase in PlGF from baseline to C1D15,PlGF; 11 patients with dose interruption in first 30 days,79.9 (±55.0) pg/mL
same,PlGF change from baseline to C1D15 as a function of response classification,"PlGF; PD (n = 6) versus SD (n = 10) at C6, p = 0.7",No statistically significant difference
same,median (±SD) increase in PlGF from baseline to C1D15,"PlGF; five patients without dose interruption in first 30 days, ±16.2",22.8 pg/mL
same,PlGF concentration at the final visit,PlGF; patients no longer on therapy,returned to near baseline levels
same,DN AUC24,[2],0.21 ± 0.04 µg·h/mL/mg
same,DN C max,[2],0.018 ± 0.005 µg/mL/mg
same,T max,[2],1.77 ± 0.44 h
same,patients with Grade 3 hypertension,"[3]; non-Japanese Asian patients, recommended phase 2 dose",8%
same,recommended phase 2 dose,[3]; prior phase 1 study in non-Japanese,0.25 mg/kg
same,efficacious plasma exposure at steady state,HT1080 fibrosarcoma,≥ 2700 ng·h/mL
